From patent publication US20230095836A1, “SUBSTITUTED 5,6-DIPHENYL-3(2H)-PYRIDAZINONES FOR USE AS FUNGICIDES” (FMC Corporation, priority 2020, published 2023)

Assays:
Assay type in all cases: in vivo
[1] = test system: Puccinia recondita f. sp. tritici; assay: Test B: test solution sprayed on wheat seedlings, inoculated next day with Puccinia recondita f. sp. tritici (wheat leaf rust); disease rating (100 = 100% disease control, 0 = no control; dash = not tested)
Excerpt: The resulting test suspensions were then used in Tests A-F. The test solution was sprayed to the point of run-off on wheat seedlings. […] A rating of 100 indicates 100% disease control and a rating of 0 indicates no disease control (relative to the controls). A dash (—) indicates the compound was not tested.

[2] = test system: Blumeria graminis f. sp. tritici; assay: Test C: test suspension sprayed on wheat seedlings, inoculated next day with Blumeria graminis f. sp. tritici (wheat powdery mildew); visual disease rating (100 = 100% disease control, 0 = no control; dash = not tested)
Experimental: (§1) The resulting test suspensions were then used in Tests A-F. The test suspension was sprayed to the point of run-off on wheat seedlings. The following day the seedlings were inoculated with a spore dust of Blumeria graminis f. sp. tritici, (also known as Erysiphe graminis f. sp. tritici, the causal agent of wheat powdery mildew) and incubated in a growth chamber at 20° C. for 8 days, after which time visual disease ratings were made. A rating of 100 indicates 100% disease control and a rating of 0 indicates no disease control (relative to the controls). A dash (—) indicates the compound was not tested.

Botrytis cinerea = assay: Test E: test suspension sprayed on tomato seedlings, inoculated next day with Botrytis cinerea (tomato Botrytis); visual disease rating (100 = 100% disease control, 0 = no control; dash = not tested)
Experimental: as §1, with “tomato” for “wheat”, “suspension” for “dust”, “Botrytis cinerea (the” for “Blumeria graminis f. sp. tritici, (also known as Erysiphe graminis f. sp. tritici, the”, “tomato Botrytis)” for “wheat powdery mildew)”, “saturated atmosphere” for “growth chamber”, “48 h, and then moved to a growth chamber at 24° C. for 3” for “8”

Phakopsora pachyrhizi = assay: Test D: test solution sprayed on soybean seedlings, inoculated next day with Phakopsora pachyrhizi (Asian soybean rust); visual disease rating (100 = 100% disease control, 0 = no control; dash = not tested)
Excerpt: General protocol for preparing test suspensions for Tests A-F: the test compounds were first dissolved in acetone in an amount equal to 3% of the final volume and then suspended at the desired concentration (in ppm) in acetone and purified water (50/50 mix by volume) containing 250 ppm of the surfactant PEG400 (polyhydric alcohol esters). The resulting test suspensions were then used in Tests A-F.
The test solution was sprayed to the point of run-off on soybean seedlings. The following day the seedlings were inoculated with a spore suspension of Phakopsora pachyrhizi (the causal agent of Asian soybean rust) and incubated in a saturated atmosphere at 22° C. for 24 h and then moved to a growth chamber at 22° C. for 8 days, after which time visual disease ratings were made.
A rating of 100 indicates 100% disease control and a rating of 0 indicates no disease control (relative to the controls). A dash (—) indicates the compound was not tested.

Alternaria solani = assay: Test F: test suspension sprayed on tomato seedlings, inoculated next day with Alternaria solani (tomato early blight); visual disease rating (100 = 100% disease control, 0 = no control; dash = not tested)
Experimental: The resulting test suspensions were then used in Tests A-F. The test suspension was sprayed to the point of run-off on tomato seedlings. The following day the seedlings were inoculated with a spore suspension of Alternaria solani (the causal agent of tomato early blight) and incubated in a saturated atmosphere at 27° C. for 48 h, and then moved to a growth chamber at 20° C. for 3 days, after which time visual disease ratings were made. A rating of 100 indicates 100% disease control and a rating of 0 indicates no disease control (relative to the controls). A dash (—) indicates the compound was not tested.

Zymoseptoria tritici = assay: Test A: test solution sprayed on wheat seedlings, inoculated next day with Zymoseptoria tritici (wheat leaf blotch); disease rating (100 = 100% disease control, 0 = no control; dash = not tested)
Experimental: The resulting test suspensions were then used in Tests A-F. The test solution was sprayed to the point of run-off on wheat seedlings. The following day the seedlings were inoculated with a spore suspension of Zymoseptoria tritici (the causal agent of wheat leaf blotch) and incubated in a saturated atmosphere at 24° C. for 48 h, and then moved to a growth chamber at 20° C. for 17 days, after which time disease ratings were made. A rating of 100 indicates 100% disease control and a rating of 0 indicates no disease control (relative to the controls). A dash (—) indicates the compound was not tested.

SMILES | Test B disease control rating ([1]; 50 ppm) | Test C disease control rating ([2]; 50 ppm) | Test E disease control rating (Botrytis cinerea; 50 ppm) | Test D disease control rating (Phakopsora pachyrhizi; 50 ppm) | Test F disease control rating (Alternaria solani; 50 ppm) | Test A disease control rating (Zymoseptoria tritici; 50 ppm) | other results
COc1ccc(Cl)c(-c2nn(C)c(=O)c(C3CC3)c2-c2ccc(F)cc2Cl)c1 [Compound 139] | 86% | 91% | 93% | 0% | 9% | 100% | 
COc1cc(F)c(Cl)c(-c2nn(C)c(=O)c(OC)c2-c2ccc(F)cc2Cl)c1 [Compound 164] | 100% | 99% | 99% | 100% | 100% | 100% | 
CCn1nc(-c2cc(OC)cc(OC)c2Br)c(-c2c(F)cccc2F)c(OC)c1=O [Compound 74] | 99% | 98% | 99% | 75% | 0% | 100% | 
COc1ccc(Cl)c(-c2nn(C)c(=O)c(Cl)c2-c2ccccc2F)c1 [Compound 183] | 100% | 96% | 98% | 94% | 100% | 100% | 
CCn1nc(-c2cc(OC)cc(OC)c2Br)c(-c2c(F)cccc2F)c(C#N)c1=O [Compound 100] | 100% | 99% | 99% | 100% | 93% | 100% | 
Cn1nc(-c2cccc(F)c2F)c(-c2ccc(F)cc2Cl)c(Cl)c1=O [Compound 107] | 100% | 100% | 97% | 100% | 100% | 100% | 
COc1ccc(Cl)c(-c2nn(C)c(=O)c(Cl)c2-c2ccc(C#N)cc2Cl)c1 [Compound 186] | 100% | 97% | 90% | 99% | 100% | 99% | 
Cn1nc(-c2ccccc2)c(-c2c(F)cccc2F)cc1=O [Compound 191] |  |  |  |  |  |  | Test B disease control rating ([1]; 250 ppm): 9%; Test C disease control rating ([2]; 250 ppm): 99%; Test E disease control rating (Botrytis cinerea; 250 ppm): 99%; Test D disease control rating (Phakopsora pachyrhizi; 250 ppm): 0%; Test F disease control rating (Alternaria solani; 250 ppm): 0%; Test A disease control rating (Zymoseptoria tritici; 250 ppm): 72%
CCc1c(-c2ccc(F)cc2Cl)c(-c2cc(OC)ccc2Cl)nn(C)c1=O [Compound 134, 5-(2-chloro-4-fluorophenyl)-6-(2-chloro-5-methoxyphenyl)-4-ethyl-2-methyl-3(2H)-pyridazinone] |  |  |  |  |  |  | pest or weed control at 50 ppm ([1]; 50 ppm): 100%; pest or weed control at 50 ppm ([2]; 50 ppm): 100%; pest or weed control at 50 ppm (Botrytis cinerea; 50 ppm): 98%; pest or weed control at 50 ppm (Phakopsora pachyrhizi; 50 ppm): 96%; pest or weed control at 50 ppm (Alternaria solani; 50 ppm): 100%; pest or weed control at 50 ppm (Zymoseptoria tritici; 50 ppm): 100%
Cn1nc(-c2ccc(F)cc2Cl)c(-c2ccc(F)cc2Cl)c(CF)c1=O [Compound 171] | 99% | 99% | 100% | 0% | 96% | 99% | 
Cn1nc(-c2ccc(F)cc2Cl)c(-c2ccc(F)cc2Cl)c(C(C)(C)O)c1=O [Compound 123] | 0% | 0% | 0% | 68% | 0% | 0% | 
Cn1nc(-c2cc(F)ccc2Br)c(-c2ccc(F)cc2Cl)c(Cl)c1=O [Compound 119] | 100% | 100% | 96% | 99% | 100% | 100% | 
COc1ccc(F)c(-c2nn(C)c(=O)c(C)c2-c2ccc(F)cc2Cl)c1 [Compound 138] | 100% | 100% | 93% | 100% | 100% | 100% | 
COc1cccc(-c2nn(C)c(=O)c(Cl)c2-c2ccc(F)cc2Cl)c1Cl [Compound 140] | 100% | 99% | 99% | 100% | 100% | 99% | 
Cn1nc(-c2cc(F)ccc2Cl)c(-c2ccc(F)cc2Cl)cc1=O [Compound 126] | 74% | 98% | 98% | 0% | 15% | 95% | 
Cn1nc(-c2cccc(Cl)c2F)c(-c2ccc(F)cc2Cl)c(Cl)c1=O [Compound 105] | 99% | 99% | 96% | 79% | 99% | 100% | 
COc1cccc(-c2nn(C)c(=O)cc2-c2c(F)cccc2F)c1Cl [Compound 30] |  |  |  |  |  |  | Test B disease control rating ([1]; 250 ppm): 99%; Test C disease control rating ([2]; 250 ppm): 84%; Test E disease control rating (Botrytis cinerea; 250 ppm): 100%; Test D disease control rating (Phakopsora pachyrhizi; 250 ppm): 98%; Test F disease control rating (Alternaria solani; 250 ppm): 41%; Test A disease control rating (Zymoseptoria tritici; 250 ppm): 100%
COc1ccc(C)c(-c2nn(C)c(=O)c(C)c2-c2ccc(F)cc2Cl)c1 [Compound 135] | 100% | 100% | 97% | 100% | 100% | 100% | 
COc1ccc(Cl)c(-c2nn(C)c(=O)c(Cl)c2-c2ccc(F)cc2Br)c1 [Compound 97] | 100% | 100% | 96% | 100% | 99% | 100% | 
Cn1nc(-c2ccc(F)cc2Cl)c(-c2ccc(F)cc2Cl)c(Cl)c1=O [Compound 60] | 100% | 99% | 98% | 93% | 99% | 100% | 
CCn1nc(-c2cc(OC)cc(OC)c2Cl)c(-c2c(F)cccc2F)cc1=O [Compound 8] | 96% | 97% | 99% | 75% | 0% | 100% | 
COc1cc(-c2nn(C)c(=O)cc2-c2ccc(F)cc2Cl)cc(OC)c1Cl [Compound 203] | 0% | 0% | 31% | 0% | 0% | 0% | 
